{"source": "patent US20210121438A1", "about": "“METHODS FOR TREATING OR PREVENTING CONFORMATION DISEASES AND METHODS FOR DRUG SCREENING” (GARAGE BRAIN SCIENCE CO., LTD, priority 2018, published 2021)", "key": {"SMN": {"target": "T1, SMN (Homo sapiens, UniProt Q16637)", "T1 construct": "endogenous in cells; host or cells: 293T (also mes23.5)", "T1 sequence (Q16637 2-294)": "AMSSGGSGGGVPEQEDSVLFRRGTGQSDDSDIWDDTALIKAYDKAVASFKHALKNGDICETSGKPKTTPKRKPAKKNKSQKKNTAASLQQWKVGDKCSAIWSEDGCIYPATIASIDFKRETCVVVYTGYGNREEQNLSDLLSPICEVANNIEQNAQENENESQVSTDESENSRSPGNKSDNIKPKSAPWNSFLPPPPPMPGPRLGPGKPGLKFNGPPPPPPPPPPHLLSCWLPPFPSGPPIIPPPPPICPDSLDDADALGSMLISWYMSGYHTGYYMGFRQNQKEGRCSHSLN", "experiment": "B-isox precipitation, SMN", "assay_type": "binding", "conditions": "100 μM b-isox, lysates of mes23.5 and 293T cells, 4° C.", "protocol": "(§1) B-isox Precipitation: The 293T cells were harvested and lysed with RIPA buffer. The protein concentration was adjusted to 1 to 10 mg/mL, and 10 mM biotinylated isoxazole was added to the cell lysate to a final concentration of 100 to 200 µM. The mixtures were then incubated at 4° C. for 60 min, centrifuged at 15000 rpm for 15 min at 4° C., and the supernatant was discarded. The entire reaction volumes were subjected to SDS-PAGE and western blotting.\nBiotinylated isoxazole (b-isox), a recently identified specific chemical probe, specifically recognizes the cross-β prion-like polymer and sequentially precipitates with proteins with low complexity, prion-like domains, or phase-separated domains, such as TDP-43 and Fus. We initially incubated 100 μM b-isox with cell lysates of mes23.5 and 293T cells at 4° C. to chemically precipitate whole prion-like proteins and then analyzed the efficiency of SMN binding by western blotting to assess the prion-like or phase transition potential of SMN (FIGS. 8a and b). […] H3K4me3 proteins were used as control for insoluble loading (FIG. 8c). Indeed, insoluble SMN has been reported to be important for the assembly of Cajal bodies (CBs) via the SUMO-like interacting motif (SIM-like). Thus, sumoylation is one of the cellular regulatory mechanisms that trigger nuclear SMN to form the separated phase though cross-β polymerization."}, "[1]": {"target": "T2, TDP-43 and Lam B recombinant proteins (Homo sapiens, UniProt Q13148)", "T2 construct": "Purified full-length TDP-43 and Lam B recombinant proteins (equivalent 3 μM monomer)", "T2 sequence (Q13148 whole entry)": "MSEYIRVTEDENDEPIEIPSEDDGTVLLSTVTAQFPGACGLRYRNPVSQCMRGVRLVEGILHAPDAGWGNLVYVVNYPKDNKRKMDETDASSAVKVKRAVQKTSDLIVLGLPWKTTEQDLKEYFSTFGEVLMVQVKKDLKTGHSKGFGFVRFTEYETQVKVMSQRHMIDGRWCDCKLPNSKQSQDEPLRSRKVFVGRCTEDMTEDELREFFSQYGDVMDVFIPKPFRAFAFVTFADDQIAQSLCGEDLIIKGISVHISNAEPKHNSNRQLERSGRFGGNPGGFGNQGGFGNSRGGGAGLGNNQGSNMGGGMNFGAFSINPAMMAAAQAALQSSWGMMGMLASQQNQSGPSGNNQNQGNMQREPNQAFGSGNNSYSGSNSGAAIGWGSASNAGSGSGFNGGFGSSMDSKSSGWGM", "experiment": "In vitro assembly of TDP-43 and Lam B filaments (electron microscopy)", "assay_type": "biochemical", "conditions": "3 μM proteins, b-isox 100 μM, 2 hr, RT", "protocol": "To investigate the de novo mechanism of heterotypic interactions of the cross-β, we incubated TDP-43 and Lam B recombinant proteins with or without b-isox for 2 hr in vitro. […] In cells, the percentage of cross-β conformers of LC protein was approximately 10˜70% by the b-isox binding analysis, e.g. 21.2% cross-β conformers of TDP-43 in Mes23.5 dopaminergic neurons (FIG. 13j). We assume that inside the cells, most of the intrinsically disordered LC domains are protected through structure folding or binding with other proteins that limits the cross-β-nucleating reactions."}, "SMNA7 cells": {"test_system": "SMNA7 cells", "experiment": "Morphology (neurite-like structure) of SMNA7 cells", "assay_type": "cell-based", "conditions": "after treating with b-isox", "from_the_text": "We investigate whether baicalein can act as a pharmacological chaperone to refold misfolded SMNA7 into a functional prion-like domain, as shown in FIG. 8 (FIG. 10a). […] PFN1 is a known SMN interactor in the cytosol. We further examined whether baicalein attenuated the degradation of the SMNA7 protein. […] We found baicalein increased the length of axons from NSC34 cells expressing SMNA7 by approximately 2-fold (FIG. 10g)."}, "PFN1": {"target": "T3, PFN1 (Homo sapiens, UniProt P07737)", "T3 construct": "endogenous in cells; host or cells: 293T", "T3 sequence (P07737 whole entry)": "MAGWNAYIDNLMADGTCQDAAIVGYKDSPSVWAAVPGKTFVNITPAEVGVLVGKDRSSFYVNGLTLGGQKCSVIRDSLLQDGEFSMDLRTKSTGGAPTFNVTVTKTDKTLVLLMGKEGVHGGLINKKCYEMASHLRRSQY", "experiment": "B-isox precipitation, PFN1", "assay_type": "binding", "conditions": "293T cell fractions", "protocol": "as §1\nBecause visible SMN granules were not observed in the cytosol under normal conditions, we deduced that SMN polymers may participate in heteromeric interactions with other prion-like proteins to fulfill biological functions in the cytosol. […] Mutations in PFN1 cause co-aggregation with TDP-43 in patients with familial amyotrophic lateral sclerosis (ALS), supporting the hypothesis that PFN1 is a prion-like protein. […] Thus, we postulated that these interactions were mediated by prion-like nature. Furthermore, we incubated full-length SMN or a panel of exon deletion constructs of SMN with b-isox and then performed a western blot analysis to identify the b-isox binding site in SMN. […] The domains encoded by exons 2b and 6 have consistently been reported to self-interact. […] Based on the results of the solubility examination, variants containing exons 6-7 were not detected in the insoluble fraction, although those variants formed visible granules. […]"}, "Rb": {"target": "T4, Rb (Homo sapiens, UniProt P06400)", "T4 construct": "endogenous in cells; host or cells: 293T", "T4 sequence (P06400 1-928)": "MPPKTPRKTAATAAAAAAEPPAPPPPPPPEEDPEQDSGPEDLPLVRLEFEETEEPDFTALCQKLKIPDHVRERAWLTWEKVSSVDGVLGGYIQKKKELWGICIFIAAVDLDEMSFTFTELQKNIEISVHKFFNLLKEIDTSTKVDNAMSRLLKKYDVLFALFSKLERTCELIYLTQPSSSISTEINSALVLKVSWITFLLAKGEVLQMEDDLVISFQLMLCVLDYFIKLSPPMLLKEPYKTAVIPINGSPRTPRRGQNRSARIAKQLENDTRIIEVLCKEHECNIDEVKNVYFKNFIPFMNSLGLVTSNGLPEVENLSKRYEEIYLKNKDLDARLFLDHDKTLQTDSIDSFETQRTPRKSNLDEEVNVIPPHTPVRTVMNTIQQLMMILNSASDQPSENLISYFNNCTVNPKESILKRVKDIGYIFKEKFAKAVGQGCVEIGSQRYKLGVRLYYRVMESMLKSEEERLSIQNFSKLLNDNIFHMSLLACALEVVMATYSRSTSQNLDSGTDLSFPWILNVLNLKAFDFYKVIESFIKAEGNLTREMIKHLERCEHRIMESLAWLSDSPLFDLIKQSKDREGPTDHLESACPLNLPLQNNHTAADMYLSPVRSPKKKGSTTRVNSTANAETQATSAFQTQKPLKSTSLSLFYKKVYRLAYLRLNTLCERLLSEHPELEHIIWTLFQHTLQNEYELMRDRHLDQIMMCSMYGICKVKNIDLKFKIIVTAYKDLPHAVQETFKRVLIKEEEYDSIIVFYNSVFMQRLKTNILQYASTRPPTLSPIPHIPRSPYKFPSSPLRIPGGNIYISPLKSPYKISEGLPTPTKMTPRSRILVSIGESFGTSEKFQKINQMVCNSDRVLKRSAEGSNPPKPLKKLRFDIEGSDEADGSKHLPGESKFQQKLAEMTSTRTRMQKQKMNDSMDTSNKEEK", "experiment": "B-isox precipitation, Rb", "assay_type": "binding", "conditions": "100 μM b-isox, lysates of 293T cells, 4° C.", "protocol": "as §1\nWe incubated 100 μM b-isox with cell lysates of 293T cells at 4° C. to chemically precipitate whole prion-like proteins and then analyzed the efficiency of Rb binding by western blotting to assess the prion-like or phase transition potential of Rb (FIG. 22). […] The N-terminus of Rb (aa. 10-56) stabilizes prion-like conformation (FIG. 22c). Deletion of Rb N-terminus leads to protein degradation (FIG. 22d)."}}, "data": [{"smiles": "O=C1N[C@H]2[C@H](CS[C@H]2CCCCC(=O)OCCCCCCNC(=O)c2cc(-c3cccs3)on2)N1", "note": "[b-isox, biotinylated isoxazole]", "values": [{"measurement": "precipitation of SMN by b-isox", "setting": "SMN", "value": "precipitation of both SMN and sumoylated SMN"}, {"measurement": "short cylindrical filaments of TDP-43 and Lam B", "setting": "[1]", "value": "disrupted"}, {"measurement": "morphology of SMNA7 cells", "setting": "SMNA7 cells", "value": "became round and detached"}, {"measurement": "precipitation of PFN1 by b-isox", "setting": "PFN1", "value": "precipitated"}, {"measurement": "precipitation of Rb by b-isox", "setting": "Rb", "value": "precipitation of Rb"}]}]}
